Data: PubChem BioAssay AID2060612 (Molecular Pharmacology Branch, DTP, NCI, 2025)
Several values for one entry are separate records, joined by “and”; a condition that tells them apart may be missing. Equal values may be shown once. Values belong to the molecule of their own block, whether it stands above or below them.

Test system: 565232-114-T-J1-PDC complex spheroid viability
Assay: Anticancer human tumor 565232-114-T-J1-PDC patient-derived bladder carcinoma cell line growth inhibition [CLK]
Details: for viability, T/C: stronger effect = lower value
Excerpt: A high-throughput screen of multi-cell type tumor spheroids was designed to identify active combinations of […] and targeted small molecules. Complex spheroids include a stromal component modeled by human endothelial cells (HUVEC) and fibroblasts modeled by human mesenchymal stem cells (MSCs). The concentration ranges selected for each drug and investigational agent were based upon clinically achievable concentrations if the clinical Cmax of the agent was known.
Compounds. The drugs and investigational agents: cirtuvivint (SM08502; NSC835563), CC-671 (NSC850746), vemurafenib (NSC761431), tapotoclax (NSC804041), sotorasib (NSC818433), adagrasib (NSC831453), MRTX-1133 (NSC836407), BAY2416964 (NSC825713), copanlisib (NSC816437), inavolisib (NSC800729), abemaciclib (NSC768073), osimertinib (NSC779217), entinostat (NSC756642), eltanexor (KPT-8602, NSC794443), venetoclax (NSC766270), ceralasertib (NSC777638), bortezomib (NSC756655), olaparib (NSC753686), talazoparib (NSC767125), alisertib (NSC759677), peposertib (NSC802822), gemcitabine (NSC613327), 5-fluorouracil (NSC19893), SN-38 (NSC673596), oxaliplatin (NSC266046), paclitaxel (NSC125973), and doxorubicin (NSC123127), were obtained from the National Cancer Institute (NCI) Developmental Therapeutics Program Chemical Repository. The FDA-approved anticancer drug set is available from the Developmental Therapeutics Program at https://dtp.cancer.gov/organization/dscb/obtaining/available plates.htm. […] The stock solutions were prepared in dimethyl sulfoxide (DMSO, Sigma-Aldrich, St. Louis, MO, cat. D2650), except for the platinum complexes which were prepared in saline (Quality Biological, Gaithersburg, MD, cat. 114-055-101), at 800-fold the tested concentration and stored at -70 degrees C prior to their use. All drugs and investigational agents were tested over a range starting from a high concentration at or near the clinical Cmax and decreasing in half-log increments. If the clinical Cmax for an agent had not been determined, the highest concentration tested was 10 microM.
Cell Culture. All cells were maintained in an incubator at 37 degrees C and 5% CO2 with 95% humidity. The PDC lines were cultured according to standard operating procedures established by the NCI PDMR. Briefly, all PDCs were thawed and cultured in Matrigel-coated flasks prepared with a working solution of 1X Ham's F-12 nutrient mix, without supplementation (Invitrogen, Waltham, MA, cat. 11765054), 100 U/mL penicillin-streptomycin (Invitrogen, cat. 15140122), and 2.5% Matrigel (Corning Inc., Corning, NY, cat. 354248) for the first three passages. The 947758-054-R-J2-PDC line was cultured in 6B/Colon 1A media, which includes advanced DMEM/F-12 (Thermo Fisher Scientific, cat. 12634028), 10 mM HEPES (Thermo Fisher Scientific, cat. 15630080), 1X GlutaMAX supplement (Thermo Fisher Scientific, cat. 35050061), 0.1 mg/mL primocin (InvivoGen, cat. ant-pm-2), 10% defined fetal bovine serum, heat inactivated (HyClone Laboratories Inc., cat. SH30070.03HI), 1.25 mM N-Acetyl-L-cysteine (Sigma-Aldrich, cat. A9165), 10 mM nicotinamide (Sigma-Aldrich, cat. N0636), 1X B-27 supplement (Thermo Fisher Scientific, cat. 17504044), 1X N-2 supplement (Thermo Fisher Scientific, cat. 17502048), and 10 microM Y-27632 dihydrochloride (Tocris Bioscience, cat. 1254). The 876862-298-R-J1-PDC was cultured in 6E media, which includes all 6B/Colon 1A media components plus 50% L-WRN conditioned media (ATCC, cat. CRL-3276), 50 ng/mL recombinant human EGF recombinant protein (hEGF; Thermo Fisher Scientific, cat. PHG0311), 10 ng/mL recombinant human fibroblast growth factor 10 (hGFG-10; PeproTech, cat. 100-26), 1 ng/mL recombinant human fibroblast growth factor 2 (hFGF-2; PeproTech, cat. 100-18B), and 1 µM prostaglandin E2 (PGE2; Tocris, cat. 2296). The 227483-062-R1-J1-PDC line was cultured in Panc media, containing all 6E components except hFGF-2, with the addition of 500 nM SB-431542 (Selleckchem, cat. S1067) and 10 nM gastrin (Tocris, cat. 3006). […]

[1] = curve of first compound, second compound 0.0316 µM
[2] = curve of first compound, second compound 0.1 µM
[3] = curve of first compound, second compound 0.316 µM
[4] = curve of first compound, second compound 1 µM
[5] = curve of first compound, second compound 3.16 µM
[6] = curve of first compound, second compound 10 µM
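Note: spheroids exposed to compounds for 7 days before readout.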
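Throughout, for viability, T/C: 100% = DMSO vehicle wells with luminescence normalized to vehicle control.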

Structure (SMILES): CC(C)CC(NC(=O)C(Cc1ccccc1)NC(=O)c1cnccn1)B(O)O (stereo unspecified) + CN1CCN(c2cc(C(=O)Nc3cc4cc(-c5cnn(C)c5)ccc4cn3)ccn2)CC1
- IC50 [1]: 5.73 nM
- IC50 [2]: 6.17 nM
- IC50 [3]: < 0.949 nM
- IC50 [4]: < 0.949 nM
- IC50 [5]: < 0.949 nM
- IC50 [6]: < 0.949 nM
- viability, T/C (second compound 0.0316 µM, first compound 0.000949 µM): 120%
- viability, T/C (second compound 0.0316 µM, first compound 0.003 µM): 109%
- viability, T/C (second compound 0.0316 µM, first compound 0.00949 µM): 4.38%
- viability, T/C (second compound 0.0316 µM, first compound 0.03 µM): 1.43%
- viability, T/C (second compound 0.0316 µM, first compound 0.0949 µM): 1.54%
- viability, T/C (second compound 0.0316 µM, first compound 0.3 µM): 1.27%
- viability, T/C (second compound 0.1 µM, first compound 0.000949 µM): 129%
- viability, T/C (second compound 0.1 µM, first compound 0.003 µM): 133%
- viability, T/C (second compound 0.1 µM, first compound 0.00949 µM): 2.13%
- viability, T/C (second compound 0.1 µM, first compound 0.03 µM): 1.8%
- viability, T/C (second compound 0.1 µM, first compound 0.0949 µM): 1.71%
- viability, T/C (second compound 0.1 µM, first compound 0.3 µM): 1.6%
- viability, T/C (second compound 0.316 µM, first compound 0.000949 µM): 23.8%
- viability, T/C (second compound 0.316 µM, first compound 0.003 µM): 25.9%
- viability, T/C (second compound 0.316 µM, first compound 0.00949 µM): 3.56%
- viability, T/C (second compound 0.316 µM, first compound 0.03 µM): 1.36%
- viability, T/C (second compound 0.316 µM, first compound 0.0949 µM): 1.26%
- viability, T/C (second compound 0.316 µM, first compound 0.3 µM): 0.65%
- viability, T/C (second compound 1 µM, first compound 0.000949 µM): 0.22%
- viability, T/C (second compound 1 µM, first compound 0.003 µM): 3%
- viability, T/C (second compound 1 µM, first compound 0.00949 µM): 1.91%
- viability, T/C (second compound 1 µM, first compound 0.03 µM): 0.18%
- viability, T/C (second compound 1 µM, first compound 0.0949 µM): 2.19%
- viability, T/C (second compound 1 µM, first compound 0.3 µM): 2.68%
- viability, T/C (second compound 3.16 µM, first compound 0.000949 µM): 0.16%
- viability, T/C (second compound 3.16 µM, first compound 0.003 µM): 1.18%
- viability, T/C (second compound 3.16 µM, first compound 0.00949 µM): 0.21%
- viability, T/C (second compound 3.16 µM, first compound 0.03 µM): 0.14%
- viability, T/C (second compound 3.16 µM, first compound 0.0949 µM): 0.16%
- viability, T/C (second compound 3.16 µM, first compound 0.3 µM): 1.81%
- viability, T/C (second compound 10 µM, first compound 0.000949 µM): 0.1%
- viability, T/C (second compound 10 µM, first compound 0.003 µM): 3.27%
- viability, T/C (second compound 10 µM, first compound 0.00949 µM): 3.03%
- viability, T/C (second compound 10 µM, first compound 0.03 µM): 0.17%
- viability, T/C (second compound 10 µM, first compound 0.0949 µM): 1.45%
- viability, T/C (second compound 10 µM, first compound 0.3 µM): 0.23%

- IC50 [1]: > 10000 nM
- IC50 [2]: < 31.6 nM
- IC50 [3]: < 31.6 nM
- IC50 [4]: < 31.6 nM
- IC50 [5]: < 31.6 nM
- IC50 [6]: < 31.6 nM
Structure (SMILES): CC(Nc1ccc2c(c1)OCCn1cc(N3C(=O)OCC3C(F)F)nc1-2)C(N)=O (stereo unspecified) + CNC(=O)c1ccc(Nc2nc(OC3CCCC3)c3c(-c4ccc5nc(C)oc5c4)c[nH]c3n2)c(OC)c1
- viability, T/C (second compound 0.0316 µM, first compound 0.0316 µM): 87.5%
- viability, T/C (second compound 0.0316 µM, first compound 0.1 µM): 93.6%
- viability, T/C (second compound 0.0316 µM, first compound 0.316 µM): 88.1%
- viability, T/C (second compound 0.0316 µM, first compound 1 µM): 100%
- viability, T/C (second compound 0.0316 µM, first compound 3.16 µM): 101%
- viability, T/C (second compound 0.0316 µM, first compound 10 µM): 101%
- viability, T/C (second compound 0.1 µM, first compound 0.0316 µM): 35.1%
- viability, T/C (second compound 0.1 µM, first compound 0.1 µM): 34.1%
- viability, T/C (second compound 0.1 µM, first compound 0.316 µM): 37.4%
- viability, T/C (second compound 0.1 µM, first compound 1 µM): 39.9%
- viability, T/C (second compound 0.1 µM, first compound 3.16 µM): 33.6%
- viability, T/C (second compound 0.1 µM, first compound 10 µM): 29.2%
- viability, T/C (second compound 0.316 µM, first compound 0.0316 µM): 21.4%
- viability, T/C (second compound 0.316 µM, first compound 0.1 µM): 20.2%
- viability, T/C (second compound 0.316 µM, first compound 0.316 µM): 23.8%
- viability, T/C (second compound 0.316 µM, first compound 1 µM): 23.7%
- viability, T/C (second compound 0.316 µM, first compound 3.16 µM): 19.9%
- viability, T/C (second compound 0.316 µM, first compound 10 µM): 18%
- viability, T/C (second compound 1 µM, first compound 0.0316 µM): 15.5%
- viability, T/C (second compound 1 µM, first compound 0.1 µM): 15.3%
- viability, T/C (second compound 1 µM, first compound 0.316 µM): 12.6%
- viability, T/C (second compound 1 µM, first compound 1 µM): 14.9%
- viability, T/C (second compound 1 µM, first compound 3.16 µM): 13.1%
- viability, T/C (second compound 1 µM, first compound 10 µM): 9.75%
- viability, T/C (second compound 3.16 µM, first compound 0.0316 µM): 9.27%
- viability, T/C (second compound 3.16 µM, first compound 0.1 µM): 10.4%
- viability, T/C (second compound 3.16 µM, first compound 0.316 µM): 9.44%
- viability, T/C (second compound 3.16 µM, first compound 1 µM): 10.1%
- viability, T/C (second compound 3.16 µM, first compound 3.16 µM): 6.97%
- viability, T/C (second compound 3.16 µM, first compound 10 µM): 10.2%
- viability, T/C (second compound 10 µM, first compound 0.0316 µM): 12.9%
- viability, T/C (second compound 10 µM, first compound 0.1 µM): 10.9%
- viability, T/C (second compound 10 µM, first compound 0.316 µM): 13.1%
- viability, T/C (second compound 10 µM, first compound 1 µM): 9.16%
- viability, T/C (second compound 10 µM, first compound 3.16 µM): 7.38%
- viability, T/C (second compound 10 µM, first compound 10 µM): 5.93%

- IC50 (curve of compound): 5900 nM and 4160 nM
Structure (SMILES): Nc1ccccc1NC(=O)c1ccc(CNC(=O)OCc2cccnc2)cc1
- viability, T/C (compound 0.0316 µM): 103% and 80.6%
- viability, T/C (compound 0.1 µM): 94.5% and 89.7%
- viability, T/C (compound 0.316 µM): 110% and 94.7%
- viability, T/C (compound 1 µM): 106% and 113%
- viability, T/C (compound 3.16 µM): 117% and 65.5%
- viability, T/C (compound 10 µM): 2.78% and 0.64%
